Biological target: T1, JNK1 (Homo sapiens, UniProt P45983)
T1 construct: purchased Carna Biosciences
Test: JNK1 biochemical assays (one or more of: time resolved fluorescence, Z'-LYTE Cascade, radioactive)
Details: Table 2; JNK1 IC50 activity level; read-out: Act. Level

T1 sequence (P45983 whole entry): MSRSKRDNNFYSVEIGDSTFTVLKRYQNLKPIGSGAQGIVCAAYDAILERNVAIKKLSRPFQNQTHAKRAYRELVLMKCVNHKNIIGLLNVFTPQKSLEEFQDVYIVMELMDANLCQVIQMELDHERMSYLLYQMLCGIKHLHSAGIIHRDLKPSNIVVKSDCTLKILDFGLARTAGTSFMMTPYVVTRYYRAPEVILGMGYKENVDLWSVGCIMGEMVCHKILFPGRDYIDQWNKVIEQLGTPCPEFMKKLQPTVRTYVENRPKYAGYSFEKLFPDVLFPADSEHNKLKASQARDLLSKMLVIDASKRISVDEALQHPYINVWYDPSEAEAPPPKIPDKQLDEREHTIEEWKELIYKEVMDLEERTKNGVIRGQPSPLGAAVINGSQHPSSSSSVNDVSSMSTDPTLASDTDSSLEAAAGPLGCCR

IC50 [nM]	SMILES
1000 to 10000	Cc1ccnc(Nc2ncc(C(N)=O)c(Nc3ccccc3)n2)n1 [Example B-21, 2-(4-methylpyrimidin-2-ylamino)-4-(phenylamino)pyrimidine-5-carboxamide]
200 to 800	NC(=O)c1cnc(NCC2CC2)nc1Nc1ccccc1 [Example B-35, 2-(cyclopropylmethylamino)-4-(phenylamino)pyrimidine-5-carboxamide]
< 200	NC(=O)c1cnc(N[C@H]2CCc3cccnc3C2)nc1N[C@@H]1CCC[C@H](O)C1 [Example B-87, 4-((1R,3S)-3-hydroxycyclohexylamino)-2-((S)-5,6,7,8-tetrahydroquinolin-7-ylamino)pyrimidine-5-carboxamide]
200 to 800	COc1ccc(NC(C)=O)cc1Nc1ncc(C(N)=O)c(Nc2ccccc2)n1 [Example B-32, 2-(5-acetamido-2-methoxyphenylamino)-4-(phenylamino)pyrimidine-5-carboxamide]
1000 to 10000	CN1CCCC1CCNc1ncc(C(N)=O)c(Nc2ccccc2)n1 (centres unmarked) [Example B-62, 2-(2-(1-methylpyrrolidin-2-yl)ethylamino)-4-(phenylamino)pyrimidine-5-carboxamide]
800 to 1000	CCOc1ccccc1CNc1ncc(C(N)=O)c(Nc2ccccc2)n1 [Example B-54, 2-(2-ethoxybenzylamino)-4-(phenylamino)pyrimidine-5-carboxamide]

Same assay, conditions: Table 3; JNK1 IC50 activity level; read-out: Act. Level

IC50 [nM]	SMILES
< 200	CO[C@H]1CC[C@H](Nc2ncc(C#N)c(N[C@@H]3CCCC[C@@H](O)C3)n2)CC1 [Example C-42, 4-((1R,3R)-3-hydroxycycloheptylamino)-2-((1r,4R)-4-methoxycyclohexylamino) pyrimidine-5-carbonitrile]
200 to 800	CN(C)C(=O)C(C)(C)C1CCC(Nc2ncc(C#N)c(N[C@@H]3CCC[C@H](O)C3)n2)CC1 (stereo partly drawn) [Example C-35, 2-(4-(5-cyano-4-((1R,3S)-3-hydroxycyclohexylamino)pyrimidin-2-ylamino)cyclohexyl)-N,N,2-trimethylpropanamide]
1000 to 10000	CCO[C@H]1CC[C@H](Nc2ncc(C#N)c(N[C@@H]3CCOC3)n2)CC1 [Example C-39, 2-((1r,4R)-4-ethoxycyclohexylamino)-4-((R)-tetrahydrofuran-3-ylamino)pyrimidine-5-carbonitrile]
1000 to 10000	CC(C)CCNc1nc(N[C@H]2CC[C@H](O)CC2)ncc1C#N [Example C-60, 2-((1r,4r)-4-hydroxycyclohexylamino)-4-(isopentylamino)pyrimidine-5-carbonitrile]

Same assay, conditions: one or more of the JNK1 biochemical assays; read-out: Act. Level (JNK1 IC50 activity level)

IC50 [nM]	SMILES
< 200	NC(=O)c1cnc(N[C@H]2CC[C@H](OCC(F)(F)F)CC2)nc1NC12CC(C1)C2 [Example 419, 4-(bicyclo[1.1.1]pentan-1-ylamino)-2-((1r,4r)-4-(2,2,2-trifluoroethoxy)cyclohexylamino)pyrimidine-5-carboxamide]
< 200	CCCC(C)(C)Nc1nc(N[C@H]2CC[C@H](OCC)CC2)ncc1C(N)=O [Example 391, 2-((1r,4r)-4-ethoxycyclohexylamino)-4-(2-methylpentan-2-ylamino)pyrimidine-5-carboxamide]
< 200	C[C@H](Nc1nc(N[C@H]2CC[C@H](O)CC2)ncc1C(N)=O)C(C)(C)C [Example 280, 4-((S)-3,3-dimethylbutan-2-ylamino)-2-((1r,4S)-4-hydroxycyclohexylamino)pyrimidine-5-carboxamide]
< 200	CC(C)(Nc1nc(N[C@H]2CC[C@H](OC3CC3)CC2)ncc1C(N)=O)C1CC1 [Example 483, 2-((1r,4r)-4-cyclopropoxycyclohexylamino)-4-(2-cyclopropylpropan-2-ylamino)pyrimidine-5-carboxamide]
< 200	CO[C@H]1CC[C@H](Nc2ncc(C(N)=O)c(NC(C)(C)CO)n2)CC1 [Example 310, 4-(1-hydroxy-2-methylpropan-2-ylamino)-2-((1r,4r)-4-methoxycyclohexylamino)pyrimidine-5-carboxamide]
< 200	CCC(C)(CC)Nc1nc(N[C@H]2CC[C@H](O)CC2)ncc1C(N)=O [Example 262, 2-((1r,4r)-4-hydroxycyclohexylamino)-4-(3-methylpentan-3-ylamino)pyrimidine-5-carboxamide]
< 200	C[C@]1(O)CCC[C@@H](Nc2nc(NC34CC(C3)C4)ncc2C(N)=O)C1 [Example 347, 2-(bicyclo[1.1.1]pentan-1-ylamino)-4-((1R,3S)-3-hydroxy-3-methylcyclohexylamino)pyrimidine-5-carboxamide]
< 200	CO[C@H]1CC[C@H](Nc2ncc(C(N)=O)c(NC3CCC3C)n2)CC1 (some centres unmarked) [Example 243, 2-((1r,4r)-4-methoxycyclohexylamino)-4-(2-methylcyclobutylamino)pyrimidine-5-carboxamide]
< 200	CC1(Nc2nc(N[C@H]3CC[C@H](OC4CC4)CC3)ncc2C(N)=O)CCC1 [Example 400, 2-((1r,4r)-4-cyclopropoxycyclohexylamino)-4-(1-methylcyclobutylamino)pyrimidine-5-carboxamide]
< 200	CC(C)(C)Nc1nc(N[C@@H]2CCCOC2)ncc1C(N)=O [Example 301, (R)-4-(tert-butylamino)-2-(tetrahydro-2H-pyran-3-ylamino)pyrimidine-5-carboxamide]
< 200	CO[C@H]1CC[C@H](Nc2ncc(C(N)=O)c(NC3CCC3C)n2)CC1 (some centres unmarked) [Example 255, 2-((1r,4r)-4-methoxycyclohexylamino)-4-(2-methylcyclobutylamino)pyrimidine-5-carboxamide]
< 200	COC12CCC(Nc3ncc(C(N)=O)c(N[C@@H]4CCC[C@H](O)C4)n3)(CC1)CC2 [Example 231, 4-((1R,3S)-3-hydroxycyclohexylamino)-2-(4-methoxybicyclo[2.2.2]octan-1-ylamino)pyrimidine-5-carboxamide]
< 200	CCC(CC)Nc1nc(N[C@H]2CC[C@H](O)CC2)ncc1C(N)=O [Example 363, 2-((1r,4r)-4-hydroxycyclohexylamino)-4-(pentan-3-ylamino)pyrimidine-5-carboxamide]
< 200	CCC(C)(C)Nc1ncc(C(N)=O)c(N[C@@H]2CCC[C@](C)(O)C2)n1 [Example 350, 4-((1R,3S)-3-hydroxy-3-methylcyclohexylamino)-2-(tert-pentylamino)pyrimidine-5-carboxamide]
< 200	CC1(Nc2ncc(C(N)=O)c(N[C@@H]3CCC[C@H](O)C3)n2)CC1 [Example 438, 4-((1R,3S)-3-hydroxycyclohexylamino)-2-(1-methylcyclopropylamino)pyrimidine-5-carboxamide]
< 200	NC(=O)c1cnc(NC2CCOCC2)nc1N[C@@H]1CCC[C@@H]1CO [Example 252, 4-((1R,2S)-2-(hydroxymethyl)cyclopentylamino)-2-(tetrahydro-2H-pyran-4-ylamino)pyrimidine-5-carboxamide]
< 200	CCC1(Nc2nc(N[C@H]3CC[C@H](O)CC3)ncc2C(N)=O)CC1 [Example 356, 4-(1-ethylcyclopropylamino)-2-((1r,4r)-4-hydroxycyclohexylamino)pyrimidine-5-carboxamide]
< 200	CC[C@H](Nc1nc(N[C@H]2CC[C@H](OC)CC2)ncc1C(N)=O)C1CC1 [Example 372, 4-((S)-1-cyclopropylpropylamino)-2-((1r,4S)-4-methoxycyclohexylamino)pyrimidine-5-carboxamide]

Same assay, conditions: tested in one or more of the JNK1 biochemical assays; read-out: Act. Level (JNK1 biochemical assay IC50 activity level)

IC50 [nM]	SMILES
< 200	CN(C)C(=O)[C@H]1CC[C@H](Nc2ncc(C(N)=O)c(N[C@@H]3CCC[C@H](O)C3)n2)CC1 [Example A-27, 2-((1r,4R)-4-(dimethylcarbamoyl)cyclohexylamino)-4-((1R,3S)-3-hydroxycyclohexylamino)pyrimidine-5-carboxamide]
1000 to 10000	CCNC(=O)[C@H]1CC[C@@H](Nc2nc(NC(C)C)ncc2C(N)=O)CC1 [Example A-141, 4-((1s,4s)-4-(ethylcarbamoyl)cyclohexylamino)-2-(isopropylamino)pyrimidine-5-carboxamide]
< 200	CCO[C@H]1CC[C@H](Nc2ncc(C(N)=O)c(N[C@@H]3CCC[C@@H]3O)n2)CC1 [Example A-104, 2-((1r,4R)-4-ethoxycyclohexylamino)-4-((1R,2S)-2-hydroxycyclopentylamino)pyrimidine-5-carboxamide]
200 to 800	CC(C)Nc1ncc(C(N)=O)c(N[C@H]2CC[C@@H](CO)CC2)n1 [Example A-139, 4-((1s,4s)-4-(hydroxymethyl)cyclohexylamino)-2-(isopropylamino)pyrimidine-5-carboxamide]
< 200	COC[C@H]1CC[C@@H](Nc2nc(N[C@H]3CCC(O)C3)ncc2C(N)=O)CC1 (stereo partly drawn) [Example A-99, 2-((1S,3S)-3-hydroxycyclopentylamino)-4-((1s,4R)-4-(methoxymethyl)cyclohexylamino)pyrimidine-5-carboxamide]
< 200	COC[C@H]1CC[C@H](Nc2ncc(C(N)=O)c(N[C@H]3CCC[C@@H]3O)n2)CC1 [Example A-92, 4-((1S,2S)-2-hydroxycyclopentylamino)-2-((1r,4S)-4-(methoxymethyl)cyclohexylamino)pyrimidine-5-carboxamide]
< 200	CCO[C@H]1CC[C@@H](Nc2nc(NC3CCOCC3)ncc2C(N)=O)CC1 [Example A-115, 4-((1s,4s)-4-ethoxycyclohexylamino)-2-(tetrahydro-2H-pyran-4-ylamino)pyrimidine-5-carboxamide]
200 to 800	CCO[C@H]1CC[C@H](Nc2ncc(C(N)=O)c(N[C@H]3CCC[C@H]3O)n2)CC1 [Example A-63, 2-((1r,4S)-4-ethoxycyclohexylamino)-4-((1S,2R)-2-hydroxycyclopentylamino)pyrimidine-5-carboxamide]
800 to 1000	NC(=O)c1cnc(NC2CCOCC2)nc1N[C@H]1CC[C@@H](C(=O)N2CCCC2)CC1 [Example A-112, 4-((1s,4s)-4-(pyrrolidine-1-carbonyl)cyclohexylamino)-2-(tetrahydro-2H-pyran-4-ylamino)pyrimidine-5-carboxamide]
< 200	C[C@@H]1CC[C@@H](Nc2nc(NC3CCC(F)(F)CC3)ncc2C(N)=O)C[C@H]1O [Example A-198, 2-(4,4-difluorocyclohexylamino)-4-((1R,3R,4R)-3-hydroxy-4-methylcyclohexylamino)pyrimidine-5-carboxamide]

Source: patent US12129237B2, “Substituted diaminocarboxamide and diaminocarbonitrile pyrimidines, compositions thereof, and methods of treatment therewith” (SIGNAL PHARMACEUTICALS, LLC, priority 2011, dated 2024)
